Experiments:
Assay type in all cases: binding
[1] = target: T1, cardiac muscle myosin S2 mutant peptide E924K (MYH7) (Homo sapiens, UniProt P12883, E924K); experiment: FRET of E924K mutant cardiac myosin S2 peptide dimer with stabilizer
T1 construct: cardiac muscle myosin S2 peptides region 921 to 939; host or cells: chemical synthesis
Excerpt: This mutation also causes mechanical instability and unstable coiled coil. Sequence of this mutation was obtained using PDB. A 19 residue peptide of this region was chemically synthesized. Generated amino acid sequence used is as follow: • E924K: NH2-[…]—COOH (SEQ ID NO:9)
(§1) Resonance energy probes (donor and acceptor) were covalently attached to synthetic myosin S2 peptides of cardiac muscle, E930del cardiac muscle, E924K cardiac muscle, smooth muscle, and skeletal muscle (Aboonasrshiraz, N., 2020).
Acceptor probe was conjugated to muscle myosin S2 peptides at N-terminus. Muscle myosin S2 peptides were dissolved in 20 mM HEPES buffer at pH 8.0. And FITC was dissolved in few drops of N, N dimethyl formamide. Lastly, FITC and muscle myosin S2 peptide was reacted together in 1 to 1 molar ratio and was let to react for 120 minutes at room temperature. The FITC conjugated S2 peptides were purified using […]. […]
(§2) In FRET assay, Fluorescein Isothiocyanate (FITC) functioned as fluorescent acceptor probe and Terbium Diethylene Triamine Pentaacetic Acid-Cytosine (Lanthanide-DTPA-Cytosine) functioned as donor probe. […] Lifetime of donor probe was measured in milliseconds.
E924K and Edel930; the myosin S2 HCM mutants, form unstable dimers. […] The calculated separation distance in presence of the stabilizer peptide was 3.65 nm. […]

[2] = target: T2, cardiac muscle myosin S2 peptide wild-type (MYH7) (Homo sapiens, UniProt P12883); experiment: FRET of cardiac muscle myosin S2 peptide dimer with anti-S2 peptides; conditions: Cardiac peptide with Stabilizer
T2 construct: The 19 residue peptide was chemically synthesized; purchased BioSynthesis; Inc; host or cells: chemical synthesis
Excerpt: A small region of myosin subfragment 2 (S2) region of human β-cardiac myosin (MYH7) was selected to be synthesized by BioSynthesis; Inc. The region was selected based on mutations found within this region causing Familial hypertrophic cardiomyopathy (FHC) (Richard et al., 2003). The mutations are located within proximal region of myosin S2 specifically region of 921-939 (FIG. 7). Myosin S2 is an intrinsically unstable coiled coil and the sequence of this region was acquired from Protein Data Bank (PDB). The 19 residue peptide was chemically synthesized. Generated amino acid sequence used is as follow:
Chelate-lanthanide complex was utilized as the donor probe, which is composed of a lanthanide, an antenna, and a chelate. Organic chromophore antenna ([…]) will absorb a photon of light, and it will transfer energy to lanthanide ion (terbium III). This probe excites at 248 nm and emits at 547 nm.
Fluorescein was used as the acceptor probe. […]
In this experiment, luminescence spectrometer, AMNICO-BOWMAN SERIES 2 SPECTROMETER™, was used to detect resonance energy transfer. […] Emission signal generated from decay of molecules was detected by a photomultiplier tube, which contains proper color filters to detect the emitted photons.
FRET measured the dissociation constant (binding affinity) between the myosin S2 dimers and the anti-S2 peptides. […]

[3] = target: T3, smooth muscle myosin S2 peptide (MYH11) (Homo sapiens, UniProt P35749); experiment: FRET of smooth muscle myosin S2 peptide dimer with anti-S2 peptides; conditions: Smooth peptide with Stabilizer
T3 construct: A 21 residue peptide of the S2 region of MYH11 was matched to the previously synthesized S2 peptide; host or cells: chemical synthesis
Excerpt: Human smooth muscle myosin heavy chain (MYH11) is a part of the non-striated muscle. This gene can be found within esophagus, endometrium, duodenum, etc. A 21 residue peptide of the S2 region of MYH11 was matched to the previously synthesized S2 peptide of cardiac isoform and chemically synthesized 926-946. Generated amino acid sequence used is as follow: • Smooth: NH2-[…]—COOH (SEQ ID NO:11)
as §1
Acceptor probe was conjugated to muscle myosin S2 peptides at N-terminus. Muscle myosin S2 peptides were dissolved in 20 mM HEPES buffer at pH 8.0. And FITC was dissolved in few drops of N, N dimethyl formamide. Lastly, FITC and muscle myosin S2 peptide was reacted together in 1 to 1 molar ratio and was let to react for 120 minutes at room temperature. […]
as §2
The specificity of peptides were later tested on the myosin S2 of the smooth muscle (MYH11). […] Calculated separation distance in presence of the stabilizer peptide was 3.34 nm.

T3 sequence (P35749 926-946): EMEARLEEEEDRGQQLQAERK

## C[C@H](NC(=O)[C@H](CCCCN)NC(=O)[C@H](Cc1ccccc1)NC(=O)[C@H](CCCCN)NC(=O)[C@H](CCCCN)NC(=O)[C@H](CCCCN)NC(=O)[C@H](CCCCN)NC(=O)[C@H](CCCCN)NC(=O)[C@H](CCCCN)NC(=O)[C@H](CCCCN)NC(=O)[C@@H](N)CCCCN)C(=O)N[C@@H](CCCCN)C(=O)N[C@@H](CCCCN)C(=O)N[C@@H](CCCCN)C(=O)N[C@@H](CCCCN)C(=O)N[C@@H](CCCCN)C(=O)N[C@@H](CCCCN)C(=O)O [Stabilizer]
[1]
  TD (donor lifetime without acceptor): 1.94E−03
[2]
  TD (donor lifetime without acceptor): 1.73E−03
[3]
  TD (donor lifetime without acceptor): 1.73E−03

— patent publication US12617818B2, “Compositions and methods for modulating myosin subfragment-2 coiled coil stability and methods for using them” (UNIVERSITY OF NORTH TEXAS, priority 2020, dated 2026)
